From US10259810B2, “N-sulfonylated pyrazolo[3,4-b]pyridin-6-carboxamides and method of use” (AbbVie S.à.r.l., priority 2015, dated 2019)

Tests used:
[1] = target: T1, ΔF508-CFTR (Homo sapiens, UniProt P13569, DEL508-508); experiment: CFTR cell surface levels using HRP-tagged ΔF508-CFTR expressing CFBE cells, in the presence of a co-corrector; assay type: cell-based; details: HRP-tagged ΔF508-CFTR CFBE cells, in the presence of 3 μM co-corrector; for EC50: read-out: EC50
T1 construct: host or cells: CFBE41o-, doxycycline-inducible
T1 sequence (P13569 with tags, fused parts or gaps DEL508-508): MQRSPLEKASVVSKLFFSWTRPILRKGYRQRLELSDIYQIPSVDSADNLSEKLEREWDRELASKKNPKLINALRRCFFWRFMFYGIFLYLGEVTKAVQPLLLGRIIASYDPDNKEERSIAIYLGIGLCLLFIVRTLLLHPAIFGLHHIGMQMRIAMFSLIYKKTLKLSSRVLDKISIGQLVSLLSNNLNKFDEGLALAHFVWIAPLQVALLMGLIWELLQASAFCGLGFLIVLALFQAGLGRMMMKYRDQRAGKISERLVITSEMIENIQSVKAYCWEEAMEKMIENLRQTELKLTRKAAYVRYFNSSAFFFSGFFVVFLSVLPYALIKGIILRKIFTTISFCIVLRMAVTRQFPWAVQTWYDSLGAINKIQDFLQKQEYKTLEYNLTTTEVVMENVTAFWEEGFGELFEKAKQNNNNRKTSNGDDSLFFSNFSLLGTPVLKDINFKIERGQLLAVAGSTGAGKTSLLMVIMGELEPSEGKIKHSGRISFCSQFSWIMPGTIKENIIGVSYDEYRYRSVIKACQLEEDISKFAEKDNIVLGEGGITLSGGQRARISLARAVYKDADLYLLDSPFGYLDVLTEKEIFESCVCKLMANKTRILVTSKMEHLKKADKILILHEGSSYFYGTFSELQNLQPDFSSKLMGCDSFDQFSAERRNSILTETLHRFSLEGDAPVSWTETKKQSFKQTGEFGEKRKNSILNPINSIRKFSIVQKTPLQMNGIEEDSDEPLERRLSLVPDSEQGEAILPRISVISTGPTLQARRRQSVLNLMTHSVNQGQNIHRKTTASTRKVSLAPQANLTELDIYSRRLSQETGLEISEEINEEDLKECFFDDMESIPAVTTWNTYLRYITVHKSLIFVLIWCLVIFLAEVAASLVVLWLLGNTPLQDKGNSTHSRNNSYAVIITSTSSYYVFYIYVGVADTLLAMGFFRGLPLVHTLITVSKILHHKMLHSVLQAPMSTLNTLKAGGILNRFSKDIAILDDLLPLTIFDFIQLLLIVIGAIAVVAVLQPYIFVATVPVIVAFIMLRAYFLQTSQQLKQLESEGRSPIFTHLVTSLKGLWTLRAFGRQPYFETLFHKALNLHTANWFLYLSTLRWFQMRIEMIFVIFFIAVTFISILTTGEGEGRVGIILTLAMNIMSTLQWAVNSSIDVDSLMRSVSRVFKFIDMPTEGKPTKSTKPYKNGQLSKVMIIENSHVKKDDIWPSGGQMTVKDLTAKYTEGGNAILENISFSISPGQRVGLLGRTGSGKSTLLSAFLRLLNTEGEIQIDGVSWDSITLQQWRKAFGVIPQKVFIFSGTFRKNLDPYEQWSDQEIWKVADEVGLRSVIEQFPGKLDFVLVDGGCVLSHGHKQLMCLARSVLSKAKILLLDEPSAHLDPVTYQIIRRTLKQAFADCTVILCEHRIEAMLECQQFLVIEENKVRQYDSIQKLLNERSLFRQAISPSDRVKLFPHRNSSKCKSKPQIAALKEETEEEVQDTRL
In short: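 Chemiluminescent read-out of surface HRP (15 min, dark) after PBS washes. Activity is normalized as 100×(sample−DMSO)/(3 μM co-corrector alone−DMSO).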

[2] = target: T1, ΔF508-CFTR; experiment: CFTR cell surface levels using HRP-tagged ΔF508-CFTR expressing CFBE cells, intrinsic corrector capacity; assay type: cell-based; design: % Activation: concentration or dose not given beside the values; details: HRP-tagged ΔF508-CFTR expressing CFBE41o- cells, compound alone (intrinsic corrector capacity), 20 hours at 33° C.; for EC50: read-out: EC50
In short: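 Surface ΔF508-CFTR was measured as HRP chemiluminescence from an extracellular-loop-4 tag, expressed as percent activity between DMSO and a […] corrector control.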

SMILES	% Activation [1] [%]	EC50 [1] [nM]	% Activation [2] [%]	EC50 [2] [nM]
N#CC1CCN(S(=O)(=O)NC(=O)c2cc(N3CCC(N4CCOCC4)CC3)c3c(C4CCC4)nn(-c4ccc(F)cc4)c3n2)CC1 [Compound 505, N-(4-cyanopiperidine-1-sulfonyl)-3-cyclobutyl-1-(4-fluorophenyl)-4-[4-(morpholin-4-yl)piperidin-1-yl]-1H-pyrazolo[3,4-b]pyridine-6-carboxamide]	389	54.1	187.5	92.6
O=C(NS(=O)(=O)C1COC1)c1cc(N2CCC(N3CCOCC3)CC2)c2c(C3CCC3)nn(-c3ccc(F)cc3)c2n1 [Compound 506, 3-cyclobutyl-1-(4-fluorophenyl)-4-[4-(morpholin-4-yl)piperidin-1-yl]-N-(oxetane-3-sulfonyl)-1H-pyrazolo[3,4-b]pyridine-6-carboxamide]	308.95	941	144.1	3330
O=C(NS(=O)(=O)C1CC1)c1cc(N2CCC(N3CCOCC3)CC2)c2c(C3CCC3)nn(-c3ccc(F)cc3)c2n1 [Compound 507, 3-cyclobutyl-N-(cyclopropanesulfonyl)-1-(4-fluorophenyl)-4-[4-(morpholin-4-yl)piperidin-1-yl]-1H-pyrazolo[3,4-b]pyridine-6-carboxamide]	580.4	95.4	309.4	137
CC1(S(=O)(=O)NC(=O)c2cc(N3CCC(N4CCOCC4)CC3)c3c(C4CCC4)nn(-c4ccc(F)cc4)c3n2)CC1 [Compound 508, 3-cyclobutyl-1-(4-fluorophenyl)-N-(1-methylcyclopropane-1-sulfonyl)-4-[4-(morpholin-4-yl)piperidin-1-yl]-1H-pyrazolo[3,4-b]pyridine-6-carboxamide]	448.8	90.3	217.5	182
Cc1cccc(-n2nc(C3CCC3)c3c(N4CCC(N5CCOCC5)CC4)cc(C(=O)NS(C)(=O)=O)nc32)c1 [Compound 509, 3-cyclobutyl-N-(methanesulfonyl)-1-(3-methylphenyl)-4-[4-(morpholin-4-yl)piperidin-1-yl]-1H-pyrazolo[3,4-b]pyridine-6-carboxamide]	527.9	118	333.2	327
CS(=O)(=O)NC(=O)c1cc(N2CCC(N3CCOCC3)CC2)c2c(C3CCC3)nn(-c3ccc(C(F)(F)F)cc3)c2n1 [Compound 510, 3-cyclobutyl-N-(methanesulfonyl)-4-[4-(morpholin-4-yl)piperidin-1-yl]-1-[4-(trifluoromethyl)phenyl]-1H-pyrazolo[3,4-b]pyridine-6-carboxamide]	428.8	171	234.9	298
Cc1cc(-n2nc(C3CCC3)c3c(N4CCC(N5CCOCC5)CC4)cc(C(=O)NS(=O)(=O)N(C)C)nc32)ccc1F [Compound 511, 3-cyclobutyl-N-(dimethylsulfamoyl)-1-(4-fluoro-3-methylphenyl)-4-[4-(morpholin-4-yl)piperidin-1-yl]-1H-pyrazolo[3,4-b]pyridine-6-carboxamide]	432.95	78.9	248.55	88.3
CN(C)S(=O)(=O)NC(=O)c1cc(N2CCC(N3CCOCC3)CC2)c2c(C3CCC3)nn(-c3cccc(F)c3)c2n1 [Compound 512, 3-cyclobutyl-N-(dimethylsulfamoyl)-1-(3-fluorophenyl)-4-[4-(morpholin-4-yl)piperidin-1-yl]-1H-pyrazolo[3,4-b]pyridine-6-carboxamide]	415.25	65.3	222.27	121
CN(C)S(=O)(=O)NC(=O)c1cc(N2CCC(N3CCOCC3)CC2)c2c(C3CCC3)nn(-c3cccc(C(F)(F)F)c3)c2n1 [Compound 513, 3-cyclobutyl-N-(dimethylsulfamoyl)-4-[4-(morpholin-4-yl)piperidin-1-yl]-1-[3-(trifluoromethyl)phenyl]-1H-pyrazolo[3,4-b]pyridine-6-carboxamide]	476.3	66.7	278.5	101
Cc1cc(-n2nc(C3CCC3)c3c(N4CCC(N5CCOCC5)CC4)cc(C(=O)NS(C)(=O)=O)nc32)ccc1F [Compound 514, 3-cyclobutyl-1-(4-fluoro-3-methylphenyl)-N-(methanesulfonyl)-4-[4-(morpholin-4-yl)piperidin-1-yl]-1H-pyrazolo[3,4-b]pyridine-6-carboxamide]	540.3	97.1	301.4	150
CS(=O)(=O)NC(=O)c1cc(N2CCC(N3CCOCC3)CC2)c2c(C3CCC3)nn(-c3cccc(F)c3)c2n1 [Compound 515, 3-cyclobutyl-1-(3-fluorophenyl)-N-(methanesulfonyl)-4-[4-(morpholin-4-yl)piperidin-1-yl]-1H-pyrazolo[3,4-b]pyridine-6-carboxamide]	479.2	52.9	287.1	179
CS(=O)(=O)NC(=O)c1cc(N2CCC(N3CCOCC3)CC2)c2c(C3CCC3)nn(-c3cccc(C(F)(F)F)c3)c2n1 [Compound 516, 3-cyclobutyl-N-(methanesulfonyl)-4-[4-(morpholin-4-yl)piperidin-1-yl]-1-[3-(trifluoromethyl)phenyl]-1H-pyrazolo[3,4-b]pyridine-6-carboxamide]	545.3	56.6	322.7	120
CNS(=O)(=O)NC(=O)c1cc(N2CCC(N3CCOCC3)CC2)c2c(C3CCC3)nn(-c3ccc(F)cc3)c2n1 [Compound 517, 3-cyclobutyl-1-(4-fluorophenyl)-N-(methylsulfamoyl)-4-[4-(morpholin-4-yl)piperidin-1-yl]-1H-pyrazolo[3,4-b]pyridine-6-carboxamide]	520.08	75.8	320.5	184
CN1CCN(Cc2cc(C(=O)NS(C)(=O)=O)nc3c2c(C2CCC2)nn3-c2ccc(F)cc2)CC1 [Compound 518, 3-cyclobutyl-1-(4-fluorophenyl)-N-(methanesulfonyl)-4-[(4-methylpiperazin-1-yl)methyl]-1H-pyrazolo[3,4-b]pyridine-6-carboxamide]	189.55	3130	35.86	–
CS(=O)(=O)NC(=O)c1cc(CN2CCOCC2)c2c(C3CCC3)nn(-c3ccc(F)cc3)c2n1 [Compound 519, 3-cyclobutyl-1-(4-fluorophenyl)-N-(methanesulfonyl)-4-[(morpholin-4-yl)methyl]-1H-pyrazolo[3,4-b]pyridine-6-carboxamide]	252.3	1020	114.4	3330
CN(C)S(=O)(=O)NC(=O)c1cc(CN2CCOCC2)c2c(C3CCC3)nn(-c3ccc(F)cc3)c2n1 [Compound 520, 3-cyclobutyl-N-(dimethylsulfamoyl)-1-(4-fluorophenyl)-4-[(morpholin-4-yl)methyl]-1H-pyrazolo[3,4-b]pyridine-6-carboxamide]	207.1	924	60	1060
